We go through one compound from patent publication US11999701B1, “4,5-bis(4-chlorophenyl)-2-phenyl-1H-imidazol-1-yl as an antimicrobial compound” (KING FAISAL UNIVERSITY, priority 2023, dated 2024).

What all share (format): cell-based
One assay deals with Aspergillus flavus. The assay can be described thus: Agar plate disc-diffusion, antifungal activity. The protocol: (§1) The agar plate disc-diffusion method was applied. […] The discs were then placed onto the surface of agar plates (nutrient agar for bacteria and Sabouraud's dextrose agar for fungi) seeded with the test organism. Each plate contained 15 mL of the agar medium, previously seeded with 0.2 mL of the broth culture of each organism pregrown for 18 hours. The plates were incubated at 37 °C for 48 h, and 72 h for fungi. The inhibition zones were measured in mm. Discs impregnated with DMSO were used as a control, and its inhibition zone was subtracted from the tested compound actual inhibition zone.

Assay [1] has as its system Chrysosporium keratinophilum. Description: Agar plate disc-diffusion, antifungal activity. As to the method: as §1
A further assay concerns different microbes. Description: Antimicrobial activity, overall statement. The settings on record: against different microbes (bacteria and fungi of Tables 1 and 2). The protocol:
The agar plate disc-diffusion method was applied. Sterilized filter papers (6 mm in diameter) were wetted with 10 μL of a solution of 4,5-bis(4-chlorophenyl)-2-phenyl-1H-imidazole (IV) to be tested, containing 10 mg/mL in DMSO, and the discs were allowed to air dry. The discs were then placed onto the surface of agar plates (nutrient agar for bacteria and Sabouraud's dextrose agar for fungi) seeded with the test organism. Each plate contained 15 mL of the agar medium, previously seeded with 0.2 mL of the broth culture of each organism pregrown for 18 hours. The plates were incubated at 37 °C for 48 h, and 72 h for fungi. The inhibition zones were measured in mm. Discs impregnated with DMSO were used as a control, and its inhibition zone was subtracted from the tested compound actual inhibition zone.

Another assay deals with Escherichia coli. The assay can be described thus: Agar plate disc-diffusion, antibacterial activity. The protocol: as §1
The subject of another assay is Bacillus cereus. The assay can be described thus: Agar plate disc-diffusion, antibacterial activity. As to the method: as §1
In the next assay the test system is Staphylococcus aureus. Description: Agar plate disc-diffusion, antibacterial activity. The protocol: as §1
The next assay has as its system Pseudomonas aeruginosa. The assay can be described thus: Agar plate disc-diffusion, antibacterial activity. As to the method: as §1
Setting [2] is: A = concentration of comp. = 10,000 μL.
[3] abbreviates: B = concentration of comp. = 30,000 μL.
Setting [4] is: C = concentration of comp. = 50,000 μL.

As to `Clc1ccc(-c2nc(-c3ccccc3)[nH]c2-c2ccc(Cl)cc2)cc1` [IV, 4,5-bis(4-chlorophenyl)-2-phenyl-1H-imidazole], the inhibition zone is 22 mm in the assay with Aspergillus flavus (setting [2]); 25 mm with Aspergillus flavus (setting [3]); 32 mm in the assay on Aspergillus flavus (setting [4]); 26 mm in assay [1] (setting [2]); 28 mm in assay [1] (setting [3]); 46 mm in assay [1] (setting [4]). Moreover, the inhibition zone with Escherichia coli (setting [2]) was 27 mm; with Escherichia coli (setting [3]), 34 mm; in the assay with Escherichia coli (setting [4]), 52 mm; in the assay on Bacillus cereus (setting [2]), 22 mm; in the assay with Bacillus cereus (setting [3]), 24 mm; in the assay on Bacillus cereus (setting [4]), 36 mm. Moreover, the inhibition zone in the assay on Staphylococcus aureus (setting [2]) stood at 20 mm; in the assay on Staphylococcus aureus (setting [3]), 24 mm; in the assay on Staphylococcus aureus (setting [4]), 33 mm; in the assay on Pseudomonas aeruginosa (setting [2]), 25 mm; with Pseudomonas aeruginosa (setting [3]), 28 mm; in the assay with Pseudomonas aeruginosa (setting [4]), 46 mm. In the assay on different microbes, the antimicrobial activities result was “excellent antimicrobial activities”.
